# Data published in patent US20230020329A1, “Annelated 9-hydroxy-1,8-dioxo-1,3,4,8-tetrahydro-2H-pyrido[1,2-a]pyrazine-7-carboxamides as HIV integrase inhibitors, methods of preparation and application thereof” (priority 2019, published 2023).
# Like-named read-outs stand apart in the source and are kept apart here.
# Legend:
# [1] = Thermodynamic (shake-flask) solubility; type: physicochemical; settings: for solubility at 24 h: thermodynamic from solid
# Description: The test compound of general formula 1 or 2 (2 mg) was weighed into a glass vial. The pION universal buffer (0.5 ml) with pH 7.4 or deionized water was added to appropriate vials. The vials were tightly closed with a lid, placed on a rotating shaker, and incubated for 24 hours to balance the solution and the solid phase at the saturation point. Each resulting solution (200 μl) was taken (in duplicate) from the vials, placed in a 96-well MultiScreen Solubility Filter Plate (Millipore), and filtered using vacuum ([…]) into a polypropylene plate with a U-shaped bottom. If necessary, the filtrates were diluted with an appropriate buffer (water). Then, 120 μl of the filtarate (or a diluted filtrate) was transferred to a 96-well plate with a UV-transparent bottom and 60 μl/well of acetonitrile and 20 μl/well of DMSO were added and thoroughly mixed with a multichannel pipette (acetonitrile and DMSO were added to obtain a required composition of calibration standards, as described below). The optical density of the resulting solutions was measured on a multifunction Infinite 200 PRO plate reader in the wavelength range from 240 nm to 400 nm in steps of 10 nm. The value of ODλ for solutions was assessed at a wavelength chosen for plotting a calibration curve.
# The concentration of a substance in the solution after the solubility test was evaluated using a calibration curve. A stock solution in DMSO with a concentration of 2 mg/ml was prepared from a separate sample. […] The range of final concentrations of the calibration curve was 0.2; 0.1; 0.05; 0.025; 0.0125; 0.00625, and 0 mg/ml. Calibration solutions were prepared in a 96-well UV plate as follows: 20 μl of a 10-fold stock solution in DMSO, 60 μl of acetonitrile, and 120 μl of the appropriate buffer were added to the well and stirred. The optical density of the resulting solutions was measured on a multifunction Infinite 200 PRO plate reader in the wavelength range from 240 nm to 400 nm with a step of 10 nm. The optimal wavelength typically corresponding to the absorption maximum was chosen, and a linear dependence of OD at a given wavelength on the concentration of the compound was obtained.
# The concentration of the compound in the filtrate after the solubility test was calculated according to the formula:
# shake-flask solubility=(ODλfiltrate−ODλblank)/(slope×1.67×filtrate dilution)
# wherein slope means the slope of the calibration curve; 1.67 is the filtrate acetonitrile+DMSO dilution ratio; filtrate dilution is an additional dilution of the filtrate, if applicable.
# [2] = Pharmacokinetics in rat plasma, IV and oral; type: in vivo, male Sprague-Dawley rats
# Description: The research was carried out on male Sprague-Dawley rats obtained from Charles River Laboratories (Germany). […] The age of the animals at the time of administration was 8-10 weeks. The animals were pre-catheterized so that all blood samples during the study of each substance could be taken from the same animals. Each substance was tested in 3 animals at each route of administration. The solution of test substances with a concentration of 0.2 mg/ml in 10% DMSO/10% Solutol/80% 0.05M N-methylglucamine was administered to rats intravenously in the tail vein at a dose of 1 mg/kg. Blood samples were collected at 5, 15, 30 min, 1, 2, 4, 8, and 24 hours after administration. Intragastric administration involved gavage using a solution with a concentration of 0.5 mg/ml in 0.5% methylcellulose at a dose of 5 mg/kg. Blood samples were collected at 15, 30 min, 1, 2, 4, 8, and 24 hours after administration. Blood (0.2 ml) was collected in polypropylene tubes containing 20 μl of 5% NaEDTA. Blood plasma was separated by centrifugation at 1500×g for 10 min and stored until testing at a temperature of −80° C. A pure acetonitrile-water (1:1) mixture (5 μl) was added to 45 μl of test samples. The samples were vortexed thoroughly for 10 seconds. Tolbutamide (100 μl) chilled to +4° C. (200 ng/ml in MeCN) was added to the samples and the mixture was vortexed. The samples were precipitated on ice at +4° C. for 15 minutes and then centrifuged at 2700 g for 10 min at +4° C. Supernatants (100 μl each) were transferred to a blank plate for HPLC/MS/MS analysis. The HPLC/MS/MS analysis was performed using an Agilent 1290 Infinity system coupled to an AB Sciex QTrap 6500 mass spectrometer. Pharmacokinetic analysis of plasma concentration vs time data was performed by a model-independent method using the Phoenix™ WinNonlin® 6.3 software (Pharsight Corp.). […]
# [3] = aqueous buffer, pION universal buffer pH 7.4, 24 h, read-out: Solubility, pH 7.4, value
smiles,measurement,setting,value
"C[C@H]1CO[C@@H]2Cn3cc(C(=O)NCc4ncc(F)cc4F)c(=O)c(O)c3C(=O)N12 [Compound 1.1.17, (3S,11aR)-6-hydroxy-N-[(3,5-difluoropyridin-2-yl)methyl]-3-methyl-5,7-dioxo-2,3,5,7,11,11a-hexahydro[1,3]oxazolo[3,2-a]pyrido[1,2-d]pyrazine-8-carboxamide]",solubility at 24 h,[1]; [3],196 µg/mL
same,solubility at 24 h,"[1]; deionized water, 24 h, read-out: Solubility, water, value",131 µg/mL
"C[C@H]1CO[C@@H]2Cn3cc(C(=O)NCc4ccc(F)nc4F)c(=O)c(O)c3C(=O)N12 [Compound 1.1.19, (3S,11aR)-6-hydroxy-N-[(2,6-difluoropyridin-3-yl)methyl]-3-methyl-5,7-dioxo-2,3,5,7,11,11a-hexahydro[1,3]oxazolo[3,2-a]pyrido[1,2-d]pyrazine-8-carboxamide]",concentration at 8 h,"[2]; male, Sprague-Dawley, rat plasma, oral 5 mg/kg, 8 h, read-out: C8 h",7910 ng/mL
same,concentration at 24 h,"[2]; male, Sprague-Dawley, rat plasma, oral 5 mg/kg, 24 h, read-out: C24 h",4440 ng/mL
same,AUCINF,"[2]; rat plasma, IV 1 mg/kg",367.627 µg·h/mL
same,AUClast,"[2]; rat plasma, IV 1 mg/kg",202.189 µg·h/mL
same,Cmax,"[2]; rat plasma, IV 1 mg/kg",18550 ng/mL
same,MRTlast,"[2]; rat plasma, IV 1 mg/kg",9.46 h
same,T1/2,"[2]; rat plasma, IV 1 mg/kg",21.2 h
same,Tmax,"[2]; rat plasma, IV 1 mg/kg",0.08 h
same,kel,"[2]; rat plasma, IV 1 mg/kg",0.03 h⁻¹
same,AUCINF,"[2]; rat plasma, oral 5 mg/kg",282.07 µg·h/mL
same,AUClast,"[2]; rat plasma, oral 5 mg/kg",176.506 µg·h/mL
same,Cmax,"[2]; rat plasma, oral 5 mg/kg",11488 ng/mL
same,MRTlast,"[2]; rat plasma, oral 5 mg/kg",9.42 h
same,T1/2,"[2]; rat plasma, oral 5 mg/kg",16.5 h
same,Tmax,"[2]; rat plasma, oral 5 mg/kg",3 h
same,kel,"[2]; rat plasma, oral 5 mg/kg",0.04 h⁻¹
same,F (bioavailability),"[2]; rat, oral 5 mg/kg vs IV 1 mg/kg, F=(AUClast PO/5·AUClast IV)·100",17.5%
same,solubility at 24 h,[1]; [3],232 µg/mL
same,"Solubility, water, value","[1]; deionized water, 24 h",269 µg/mL
same,solubility at 24 h,"[1]; deionized water, water, read-out: Solubility in water",269 µg/mL
